Measured values from patent US20240218022A1, “ANTI-VISTA MACROCYCLIC PEPTIDES AND COMPOSITIONS” (BRISTOL-MYERS SQUIBB COMPANY, priority 2022, published 2024).
Starred links: 1 amine or outer side, 2 acyl side, 3 side chain; linkers in the order of their positions; H or OH if unused. Positions of bridges follow the written chain, without caps; N, C: chain ends. Non-standard residues stand in square brackets, D forms with d. Residues, ends and D or L forms follow the SMILES beside them. ξ: configuration not given here. Phe(3-Me) = Cc1cccc(C[C@H](N)C(=O)O)c1; βAsp = O=C(O)[C@H](CC(=O)[*:2])N[*:1]; NMeF = CN[C@@H](Cc1ccccc1)C(=O)O; Ile(3ξ) = CCC(C)[C@H](N)C(=O)O; NMeL = CN[C@@H](CC(C)C)C(=O)O; Ahp(2) = CCCCC[C@H](N)C(=O)O; NMeNle = CCCC[C@H](NC)C(=O)O; Tle = CC(C)(C)[C@H](N)C(=O)O; Pip = O=C(O)[C@@H]1CCCCN1; NHexGly = CCCCCCNCC(=O)O; Nle = CCCC[C@H](N)C(=O)O; Aun = NCCCCCCCCCCC(=O)O; Aze = O=C(O)[C@@H]1CCN1; AEEA = NCCOCCOCC(=O)O

Target: T1, mouse VISTA (mVISTA) (Mus musculus, UniProt Q9D659)
T1 construct: expressed in transfected cells; host or cells: Human embryonic kidney 293T cells
T1 sequence (Q9D659 33-308): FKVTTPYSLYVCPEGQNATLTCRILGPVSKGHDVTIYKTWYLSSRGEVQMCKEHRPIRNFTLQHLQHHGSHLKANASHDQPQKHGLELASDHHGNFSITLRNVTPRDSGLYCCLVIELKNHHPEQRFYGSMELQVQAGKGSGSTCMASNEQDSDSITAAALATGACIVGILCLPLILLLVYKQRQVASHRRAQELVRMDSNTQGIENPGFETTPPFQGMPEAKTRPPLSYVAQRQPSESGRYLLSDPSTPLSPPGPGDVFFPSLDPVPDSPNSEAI
Assay: Cell-Based Binding High-Content Assay For mVISTA (HC CBA mVISTA)
Settings: read-out: HC CBA mVISTA IC50
Method in brief: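 293T cells expressing mouse VISTA, with compounds added either after seeding ("no wash") or before seeding and then washed out after 1 h. Biotinylated peptide 2 nM for 30 min at room temperature, then detection with Alexa 647–streptavidin. After fixation with Hoechst stain, plates were high-content imaged; IC50 from four-parameter logistic fit.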

Compound	IC50 [nM]
CCCCCCN1CC(=O)N[C@@H](Cc2ccc(O)cc2)C(=O)N[C@@H](CCCC)C(=O)N[C@@H](CC(N)=O)C(=O)N[C@@H](CCCNC(=N)N)C(=O)N(C)[C@@H](Cc2ccccc2)C(=O)N[C@@H](CCCCC)C(=O)N2CCC[C@H]2C(=O)N[C@@H](C(C)C)C(=O)N[C@@H](CO)C(=O)N[C@H](C(=O)N[C@@H](CC(=O)NCCOCCOCC(=O)NCCCCCCCCCCC(=O)O)C(=O)O)CSCC(=O)N[C@@H](Cc2ccccc2)C(=O)N[C@@H](Cc2c[nH]c3ccccc23)C(=O)N[C@@H](CC(=O)O)C1=O [Example 2177] ({CH2CO}-FWD[NHexGly]Y[Nle]NR[NMeF][Ahp(2)]PVSC[βAsp][AEEA][Aun]-OH; thioether N-14)	38.4
CCCCCCN1CC(=O)N[C@@H](Cc2ccc(O)cc2)C(=O)N[C@@H](CCCC)C(=O)N[C@@H](CC(N)=O)C(=O)N[C@@H](CCCNC(=N)N)C(=O)N(C)[C@@H](CCCC)C(=O)N[C@@H](CCCCC)C(=O)N(C)[C@@H](CC(C)C)C(=O)N[C@@H](C(C)CC)C(=O)N[C@@H](CO)C(=O)N[C@H](C(=O)N[C@@H](CC(=O)NCCOCCOCC(=O)NCCCCCCCCCCC(=O)O)C(=O)O)CSCC(=O)N[C@@H](Cc2ccccc2)C(=O)N[C@@H](Cc2c[nH]c3ccccc23)C(=O)N[C@@H](CC(=O)O)C1=O (stereo partly shown) [Example 2178] ({CH2CO}-FWD[NHexGly]Y[Nle]NR[NMeNle][Ahp(2)][NMeL][Ile(3ξ)]SC[βAsp][AEEA][Aun]-OH; thioether N-14)	46.7
CCCCCCN1CC(=O)N[C@@H](Cc2ccc(O)cc2)C(=O)N[C@@H](CCCC)C(=O)N[C@@H](CC(N)=O)C(=O)N[C@@H](CCCNC(=N)N)C(=O)N(C)[C@@H](CCCC)C(=O)N[C@@H](CCCCC)C(=O)N(C)[C@@H](CC(C)C)C(=O)N[C@@H](C(C)(C)C)C(=O)N[C@@H](CO)C(=O)N[C@H](C(=O)N[C@@H](CC(=O)NCCOCCOCC(=O)NCCCCCCCCCCC(=O)O)C(=O)O)CSCC(=O)N[C@@H](Cc2ccccc2)C(=O)N[C@@H](Cc2c[nH]c3ccccc23)C(=O)N[C@@H](CC(=O)O)C1=O [Example 2179] ({CH2CO}-FWD[NHexGly]Y[Nle]NR[NMeNle][Ahp(2)][NMeL][Tle]SC[βAsp][AEEA][Aun]-OH; thioether N-14)	30.2
CCCCCCN1CC(=O)N[C@@H](Cc2ccc(O)cc2)C(=O)N[C@@H](CCCC)C(=O)N[C@@H](CC(N)=O)C(=O)N[C@@H](CCCNC(=N)N)C(=O)N(C)[C@@H](CCCC)C(=O)N[C@@H](CCCCC)C(=O)N(C)[C@@H](CC(C)C)C(=O)N[C@@H](C(C)C)C(=O)N[C@@H](CO)C(=O)N[C@H](C(=O)N[C@@H](CC(=O)NCCOCCOCC(=O)NCCCCCCCCCCC(=O)O)C(=O)O)CSCC(=O)N[C@@H](Cc2ccccc2)C(=O)N[C@@H](Cc2c[nH]c3ccccc23)C(=O)N[C@@H](CC(=O)O)C1=O [Example 2180] ({CH2CO}-FWD[NHexGly]Y[Nle]NR[NMeNle][Ahp(2)][NMeL]VSC[βAsp][AEEA][Aun]-OH; thioether N-14)	18.5
CCCCCCN1CC(=O)N[C@@H](Cc2ccc(O)cc2)C(=O)N[C@@H](CCCC)C(=O)N[C@@H](CC(N)=O)C(=O)N[C@@H](CCCNC(=N)N)C(=O)N(C)[C@@H](CCCC)C(=O)N[C@@H](CCCCC)C(=O)N2CCCC[C@H]2C(=O)N[C@@H](C(C)CC)C(=O)N[C@@H](CO)C(=O)N[C@H](C(=O)N[C@@H](CC(=O)NCCOCCOCC(=O)NCCCCCCCCCCC(=O)O)C(=O)O)CSCC(=O)N[C@@H](Cc2ccccc2)C(=O)N[C@@H](Cc2c[nH]c3ccccc23)C(=O)N[C@@H](CC(=O)O)C1=O (stereo partly shown) [Example 2182] ({CH2CO}-FWD[NHexGly]Y[Nle]NR[NMeNle][Ahp(2)][Pip][Ile(3ξ)]SC[βAsp][AEEA][Aun]-OH; thioether N-14)	30.9
CCCCCCN1CC(=O)N[C@@H](Cc2ccc(O)cc2)C(=O)N[C@@H](CCCC)C(=O)N[C@@H](CC(N)=O)C(=O)N[C@@H](CCCNC(=N)N)C(=O)N(C)[C@@H](CCCC)C(=O)N[C@@H](CCCCC)C(=O)N2CC[C@H]2C(=O)N[C@@H](C(C)C)C(=O)N[C@@H](CO)C(=O)N[C@H](C(=O)N[C@@H](CC(=O)NCCOCCOCC(=O)NCCCCCCCCCCC(=O)O)C(=O)O)CSCC(=O)N[C@@H](Cc2ccccc2)C(=O)N[C@@H](Cc2c[nH]c3ccccc23)C(=O)N[C@@H](CC(=O)O)C1=O [Example 2184] ({CH2CO}-FWD[NHexGly]Y[Nle]NR[NMeNle][Ahp(2)][Aze]VSC[βAsp][AEEA][Aun]-OH; thioether N-14)	23.1
CCCCCCN1CC(=O)N[C@@H](Cc2ccc(O)cc2)C(=O)N[C@@H](CCCC)C(=O)N[C@@H](CC(N)=O)C(=O)N[C@@H](CCCNC(=N)N)C(=O)N(C)[C@@H](CCCC)C(=O)N[C@@H](CCCCC)C(=O)N2CCCC[C@H]2C(=O)N[C@@H](C(C)C)C(=O)N[C@@H](CO)C(=O)N[C@H](C(=O)N[C@@H](CC(=O)NCCOCCOCC(=O)NCCCCCCCCCCC(=O)O)C(=O)O)CSCC(=O)N[C@@H](Cc2ccccc2)C(=O)N[C@@H](Cc2c[nH]c3ccccc23)C(=O)N[C@@H](CC(=O)O)C1=O [Example 2186] ({CH2CO}-FWD[NHexGly]Y[Nle]NR[NMeNle][Ahp(2)][Pip]VSC[βAsp][AEEA][Aun]-OH; thioether N-14)	24.4
CCCCCCN1CC(=O)N[C@@H](Cc2ccc(O)cc2)C(=O)N[C@@H](CCCC)C(=O)N[C@@H](CC(N)=O)C(=O)N[C@@H](CCCNC(=N)N)C(=O)N(C)[C@@H](CCCC)C(=O)N[C@@H](CCCCC)C(=O)N2CC[C@H]2C(=O)N[C@@H](C(C)(C)C)C(=O)N[C@@H](CO)C(=O)N[C@H](C(=O)N[C@@H](CC(=O)NCCOCCOCC(=O)NCCCCCCCCCCC(=O)O)C(=O)O)CSCC(=O)N[C@@H](Cc2ccccc2)C(=O)N[C@@H](Cc2c[nH]c3ccccc23)C(=O)N[C@@H](CC(=O)O)C1=O [Example 2187] ({CH2CO}-FWD[NHexGly]Y[Nle]NR[NMeNle][Ahp(2)][Aze][Tle]SC[βAsp][AEEA][Aun]-OH; thioether N-14)	13.3

The next lines start with the values.

IC50 [nM]	Compound
16.9	CCCCCCN1CC(=O)N[C@@H](Cc2ccc(O)cc2)C(=O)N[C@@H](CCCC)C(=O)N[C@@H](CC(N)=O)C(=O)N[C@@H](CCCNC(=N)N)C(=O)N(C)[C@@H](CCCC)C(=O)N[C@@H](CCCCC)C(=O)N2CC[C@H]2C(=O)N[C@@H](C(C)CC)C(=O)N[C@@H](CO)C(=O)N[C@H](C(=O)N[C@@H](CC(=O)NCCOCCOCC(=O)NCCCCCCCCCCC(=O)O)C(=O)O)CSCC(=O)N[C@@H](Cc2ccccc2)C(=O)N[C@@H](Cc2c[nH]c3ccccc23)C(=O)N[C@@H](CC(=O)O)C1=O (stereo partly shown) [Example 2183] ({CH2CO}-FWD[NHexGly]Y[Nle]NR[NMeNle][Ahp(2)][Aze][Ile(3ξ)]SC[βAsp][AEEA][Aun]-OH; thioether N-14)
50.1	CCCCCCN1CC(=O)N[C@@H](Cc2ccc(O)cc2)C(=O)N[C@@H](CCCC)C(=O)N[C@@H](CC(N)=O)C(=O)N[C@@H](CCCNC(=N)N)C(=O)N(C)[C@@H](CCCC)C(=O)N[C@@H](CCCCC)C(=O)N2CCCC[C@H]2C(=O)N[C@@H](Cc2ccccc2)C(=O)N[C@@H](CO)C(=O)N[C@H](C(=O)N[C@@H](CC(=O)NCCOCCOCC(=O)NCCCCCCCCCCC(=O)O)C(=O)O)CSCC(=O)N[C@@H](Cc2ccccc2)C(=O)N[C@@H](Cc2c[nH]c3ccccc23)C(=O)N[C@@H](CC(=O)O)C1=O [Example 2185] ({CH2CO}-FWD[NHexGly]Y[Nle]NR[NMeNle][Ahp(2)][Pip]FSC[βAsp][AEEA][Aun]-OH; thioether N-14)
47.3	CCCCCCN1CC(=O)N[C@@H](Cc2ccc(O)cc2)C(=O)N[C@@H](CCCC)C(=O)N[C@@H](CC(N)=O)C(=O)N[C@@H](CCCNC(=N)N)C(=O)N(C)[C@@H](CCCC)C(=O)N[C@@H](CCCCC)C(=O)N2CC[C@H]2C(=O)N[C@@H](Cc2ccccc2)C(=O)N[C@@H](CO)C(=O)N[C@H](C(=O)N[C@@H](CC(=O)NCCOCCOCC(=O)NCCCCCCCCCCC(=O)O)C(=O)O)CSCC(=O)N[C@@H](Cc2ccccc2)C(=O)N[C@@H](Cc2c[nH]c3ccccc23)C(=O)N[C@@H](CC(=O)O)C1=O [Example 2188] ({CH2CO}-FWD[NHexGly]Y[Nle]NR[NMeNle][Ahp(2)][Aze]FSC[βAsp][AEEA][Aun]-OH; thioether N-14)
29	CCCCCCN1CC(=O)N[C@@H](Cc2ccc(O)cc2)C(=O)N[C@@H](CCCC)C(=O)N[C@@H](CC(N)=O)C(=O)N[C@@H](CCCNC(=N)N)C(=O)N(C)[C@@H](CCCC)C(=O)N[C@@H](CCCCC)C(=O)N2CCC[C@H]2C(=O)N[C@@H](C(C)(C)C)C(=O)N[C@@H](CO)C(=O)N[C@H](C(=O)N[C@@H](CC(=O)NCCOCCOCC(=O)NCCCCCCCCCCC(=O)O)C(=O)O)CSCC(=O)N[C@@H](Cc2ccccc2)C(=O)N[C@@H](Cc2cccc(C)c2)C(=O)N[C@@H](CC(=O)O)C1=O [Example 2189] ({CH2CO}-F[Phe(3-Me)]D[NHexGly]Y[Nle]NR[NMeNle][Ahp(2)]P[Tle]SC[βAsp][AEEA][Aun]-OH; thioether N-14)
24.4	CCCCCCN1CC(=O)N[C@@H](Cc2ccc(O)cc2)C(=O)N[C@@H](CCCC)C(=O)N[C@@H](CC(N)=O)C(=O)N[C@@H](CCCNC(=N)N)C(=O)N(C)[C@@H](CCCC)C(=O)N[C@@H](CCCCC)C(=O)N2CCC[C@H]2C(=O)N[C@@H](C(C)(C)C)C(=O)N[C@@H](CO)C(=O)N[C@H](C(=O)N[C@@H](CC(=O)NCCOCCOCC(=O)NCCCCCCCCCCC(=O)O)C(=O)O)CSCC(=O)N[C@@H](Cc2ccccc2)C(=O)N[C@@H](Cc2ccc(O)cc2)C(=O)N[C@@H](CC(=O)O)C1=O [Example 2190] ({CH2CO}-FYD[NHexGly]Y[Nle]NR[NMeNle][Ahp(2)]P[Tle]SC[βAsp][AEEA][Aun]-OH; thioether N-14)
